Assay results: patent US9428445B2, “Amine compounds and their use as zero or low VOC neutralizers” (ANGUS Chemical Company, priority 2012, dated 2016)
Counter-ions that a name gives are not always drawn. Like-named read-outs stand apart in the source and are kept apart here.

Assays:
Type in all cases: physicochemical
[1] = Neutral equivalent by titration
Description: (§1) Also using titration, the neutral equivalent is determined to be 168, which matches the molecule's molecular weight. However, upon inclusion into a paint formulation, slightly less (2%) of this molecule is needed to regulate pH than a control compound (2-amino-2-ethyl-1,3-propanediol (AEPD)) with a measured neutralization equivalent of 124. Thus, the second pKa contributes to pH regulation and contributes to the value of the compound as a neutralizer in paint formulations.

[2] = VOC determination per CARB Method 310 (vapor pressure, GC test)
Description: Zero VOC can be defined in one of three ways according to California Air Resources Board (CARB) Method 310 for VOC determination: the vapor pressure can be below 0.1 mm Hg at 20° C., the boiling point can be above 216° C., or the compound must pass a gas chromatograph test (EPA Method 18, 8240B, 8260B,
(§2) Thus, this material can be classified as a zero VOC using any of the three methods outlined in CARB Method 310.

Thermal analysis (TGA) = assay: Thermal analysis (TGA)
Description: as §2

[3] = Acid dissociation constants by standard titration method; details: read-out: acid dissociation constant (pKa)
Description: as §1

Structure (SMILES): CCC(N)(CO)CO [AEPD, 2-amino-2-ethyl-1,3-propanediol, reference compound]
- neutral equivalent / neutralization equivalent [1]: 124

Structure (SMILES): CC(C)(N)CNCC(=O)O [Example 1, N-[2-(amino)-2-methylpropyl]-glycine (Sodium Salt)]
- vapor pressure [2]: no discernable vapor pressure
- VOC classification ([2]; any of the three methods outlined in CARB Method 310): zero VOC
- elution on the GC ([2]; cannot be vaporized, GC testing methods for CARB compliance): does not elute
- boiling point (Thermal analysis (TGA)): no boiling point
- decomposition temperature (Thermal analysis (TGA)): > 275 °C
- neutral equivalent / neutralization equivalent [1]: 168
- pKa ([3]; primary amine): 9.9
- pKa ([3]; sodium carboxylate): 6.1
